Reference: PMC4114018 (Science signaling, 2013)

Tests used:
rat GPR17 (rGPR17) = rat GPR17 (rGPR17) (Rattus norvegicus, UniProt Q09QM4); experiment: label-free DMR and second messenger assays, HEK293 cells; assay type: cell-based; settings: agonist
mouse GPR17 (mGPR17) = mouse GPR17 (mGPR17) (Mus musculus, UniProt Q6NS65); experiment: as above; assay type: cell-based; settings: agonist
Chain of mouse GPR17 (mGPR17) (Q6NS65 whole entry): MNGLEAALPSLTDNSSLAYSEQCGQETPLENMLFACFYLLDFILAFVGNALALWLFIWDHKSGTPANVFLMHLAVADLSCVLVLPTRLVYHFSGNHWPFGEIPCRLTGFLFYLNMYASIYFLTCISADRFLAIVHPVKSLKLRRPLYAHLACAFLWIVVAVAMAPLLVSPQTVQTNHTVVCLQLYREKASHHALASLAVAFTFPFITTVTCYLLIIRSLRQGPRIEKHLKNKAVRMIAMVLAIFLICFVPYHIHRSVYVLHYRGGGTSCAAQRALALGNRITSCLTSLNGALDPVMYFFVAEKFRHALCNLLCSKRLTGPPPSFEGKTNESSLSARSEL

Chain of rat GPR17 (rGPR17) (Q09QM4 whole entry): as the sequence (Q6NS65 whole entry) above, with N2D, A6T, S15A, A270S counted along it

For `O=C(O)CCc1c(C(=O)O)[nH]c2cc(Cl)cc(Cl)c12` [compound 2, 2-carboxy-4,6-dichloro-1H-indole-3-propionic acid], the EC50 (rat GPR17 (rGPR17)) was “concentration-dependent activation of rGPR17 and mGPR17 was observed” and the EC50 (mouse GPR17 (mGPR17)) was “concentration-dependent activation of rGPR17 and mGPR17 was observed”.
